Reference: patent EP4772510A2, “BENZAZEPINONE COMPOUND AND USE THEREOF” (HANGZHOU BIO-SINCERITY PHARMA-TECHCO., LTD., priority 2023, dated 2025)

What was measured:
[1] = Pharmacokinetic experiment in SD rats; conditions: p.o, 5 mg/kg vs i.v, 0.5 mg/kg
Experimental: Example 59: Pharmacokinetic Experiment of Compounds in SD Rats
SD rats, male, 6-8 weeks old, purchased from Zhejiang Vital River Laboratory Animal Technology Co., Ltd., production license No.: SCXK (Zhejiang) 2019-0001. The animals were maintained in an SPF-grade animal room of Hangzhou Bio-Sincerity Pharma-Tech Co., Ltd., with the experimental animal use license No. of SYXK (Zhejiang) 2021-0014. The animals were used after being acclimatized for at least one week. All experiments were performed in strict compliance with the regulations on experimental animals.
Four hours after administration, food was provided.
After administration to SD rats, about 300 µL of blood was collected from the orbit of each animal and anticoagulated with EDTA-Na2. […] The collected blood was placed in an ice bath and centrifuged within 1 h to separate plasma (centrifugation conditions: 2000× g, 10 min, 4 °C). 50 µL of plasma sample was taken, subjected to protein precipitation, and then assayed by UHPLC-MS. The assay data were analyzed and processed using WinNonLin8.1 pharmacokinetic software to obtain pharmacokinetic parameters.

[2] = tested on: U937 cells; assay: Inhibition of TNF-α-induced necroptosis of U937 cells (CCK-8 assay); assay type: cell-based, human; conditions: 18 h
Procedure, shortened: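 U937 cells (3.6 × 10^4/well) rested 6 h, then exposed to TNF-α 20 ng/mL, BV6 2 µM and Z-VAD-FMK 20 µM plus compound (8-point 3-fold series, 1000–0.46 nM, duplicate) for 18 h. Viability by CCK-8, absorbance at 450 nm after 2-4 h at 37 °C; EC50 calculated.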

[3] = Homo sapiens, U-937, TNF-α 20 ng/mL + BV6 2 µM + Z-VAD-FMK 20 µM
[4] = TNF-α 20 ng/mL + BV6 2 µM + Z-VAD-FMK 20 µM

Molecule	Fabs (%) [1] [%]	EC50 [2, 3] [nM]	EC50 [2, 4] [nM]
CN1C(=O)[C@@H](NC(=O)c2nnc(Cc3ccccc3)[nH]2)COc2ccccc21 [GSK2982772, (S)-5-benzyl-N-(5-methyl-4-oxo-2,3,4,5-tetrahydrobenzo[b][1,4]oxazepin-3-yl)-4H-1,2,4-triazole-3-carboxamide, reference compound]	39.13 ± 11.8	10 to 100	–
Cn1cc(C#Cc2cc3c4c(c2)CCN4C(=O)C(NC(=O)c2ncn(Cc4ccc(F)c(F)c4)n2)CC3)cn1 (stereo not shown) [III-12, 1-(3,4-difluorobenzyl)-N-(9-((1-methyl-1H-pyrazol-4-yl)ethynyl)-4-oxo-1,2,3,4,6,7-hexahydroazepino[3,2,1-hi]indol-3-yl)-1H-1,2,4-triazole-3-carboxamide]	64.54 ± 10.10	5 to 10	–
O=C(NC1CCc2cc(C#Cc3cnn(C(F)F)c3)cc3c2N(CC3)C1=O)c1ncn(Cc2c(F)cccc2F)n1 (stereo not shown) [III-17, 1-(2,6-difluorobenzyl)-N-(9-((1-(difluoromethyl)-1H-pyrazol-4-yl)ethynyl)-4-oxo-1,2,3,4,6,7-hexahydroazepino[3,2,1-hi]indol-3-yl)-1H-1,2,4-triazole-3-carboxamide]	–	–	< 5
O=C(NC1CCc2cc(C#Cc3cnn(C(F)F)c3)cc3c2N(CC3)C1=O)c1ncn(Cc2cc(F)ccc2F)n1 (stereo not shown) [III-19, 1-(2,5-difluorobenzyl)-N-(9-((1-(difluoromethyl)-1H-pyrazol-4-yl)ethynyl)-4-oxo-1,2,3,4,6,7-hexahydroazepino[3,2,1-hi]indol-3-yl)-1H-1,2,4-triazole-3-carboxamide]	121.33 ± 40.32	5 to 10	–
N-(9-((1-(difluoromethyl)-1H-pyrazol-4-yl)ethynyl)-4-oxo-1,2,3,4,6,7-hexahydroazepino[3,2,1-hi]indol-3-yl)-1-(4-methylbenzyl)-1H-1,2,4-triazole-3-carboxamide [III-25]	–	–	10 to 100

The next lines start with results.

Fabs (%) [1] [%]	Molecule	EC50 [2, 3] [nM]	EC50 [2, 4] [nM]
111.92 ± 11.87	Cn1cc(C#Cc2cc3c4c(c2)CCN4C(=O)C(NC(=O)c2ncn(Cc4c(F)cccc4F)n2)CC3)cn1 (stereo not shown) [III-1, 1-(2,6-difluorobenzyl)-N-(9-((1-methyl-1H-pyrazol-4-yl)ethynyl)-4-oxo-1,2,3,4,6,7-hexahydroazepino[3,2,1-hi]indol-3-yl)-1H-1,2,4-triazole-3-carboxamide]	< 5	–
51.37 ± 3.03	Cn1cc(C#Cc2cc3c4c(c2)CCN4C(=O)C(NC(=O)c2ncn(Cc4cc(F)ccc4F)n2)CC3)cn1 (stereo not shown) [III-10, 1-(2,5-difluorobenzyl)-N-(9-((1-methyl-1H-pyrazol-4-yl)ethynyl)-4-oxo-1,2,3,4,6,7-hexahydroazepino[3,2,1-hi]indol-3-yl)-1H-1,2,4-triazole-3-carboxamide]	< 5	–
97.15 ± 40.17	O=C(NC1CCc2cc(C#Cc3cnn(C(F)F)c3)cc3c2N(CC3)C1=O)c1ncn(Cc2ccccc2F)n1 (stereo not shown) [III-21, N-(9-((1-(difluoromethyl)-1H-pyrazol-4-yl)ethynyl)-4-oxo-1,2,3,4,6,7-hexahydroazepino[3,2,1-hi]indol-3-yl)-1-(2-fluorobenzyl)-1H-1,2,4-triazole-3-carboxamide]	< 5	–
51.2 ± 3.29	C#Cc1cc2c3c(c1)CCN3C(=O)C(NC(=O)c1ncn(Cc3c(F)cccc3F)n1)CC2 (stereo not shown) [III-26, 1-(2,6-difluorobenzyl)-N-(9-ethynyl-4-oxo-1,2,3,4,6,7-hexahydroazepino[3,2,1-hi]indol-3-yl)-1H-1,2,4-triazole-3-carboxamide]	< 5	–
